Measurements from patent US20250281480A1, “PHARMACEUTICAL DRY POWDER INHALATION FORMULATION” (Bayer Aktiengesellschaft, priority 2021, published 2025).

Key:
[1] = tested on: anesthetized thromboxane A2 challenged PAH-minipig; assay: Haemodynamics in the anesthetized thromboxane challenged minipig (PAH minipig), inhaled nebulized solution: lung selectivity and duration of action; assay type: in vivo, Göttingen Minipigs
Procedure: (§1) Healthy Göttingen Minipigs® Ellegaard (Ellegaard, Denmark) of both sexes and having a weight of 2-6 kg were used. The animals were sedated by i.m. administration of about 25 mg/kg ketamine and about 10 mg/kg azaperone. Anaesthesia was initiated by i.v. administration of about 2 mg/kg ketamine and about 0.3 mg/kg midazolam. Maintenance of anaesthesia was by i.v. administration of about 7.5-30 mg/kg/h ketamine and about 1-4 mg/kg/h midazolam (rate of infusion 1-4 ml/kg/h) and about 150 μg/kg/h pancuronium bromide (for example Pancuronium-Actavis). After intubation, the animals were ventilated by the ventilator at a constant respiratory volume (10-12 ml/kg, 35 breaths/min; Avea®, Viasys Healthcare, USA, or Engström Carestation, GE Healthcare, Freiburg, Germany) such that an end-tidal CO2 concentration of about 5% was achieved. Ventilation was performed with room air, enriched with about 40% oxygen (normoxia). For the measurement of the haemodynamic parameters such as pulmonary arterial pressure (PAP), blood pressure (BP) and heart rate (HR), catheters were inserted into the carotid artery to measure the blood pressure, and a Swan-Ganz® catheter was introduced in a flow-directed manner via the jugular vein into the pulmonary artery. The haemodynamic signals were recorded and evaluated by means of pressure transducers (Combitransducer, B. Braun, Melsungen, Germany)/amplifiers and Ponemah® as data acquisition software.
After the instruments have been placed into the animals, continuous infusion of a thromboxane A2 analog was initiated to increase the pulmonary arterial pressure. About 0.3-0.75 μg/kg/min of 9,11-didesoxy-9α,11α-epoxymethanoprostaglandine F2α (U-44069; Sigma, cat. no. D0400, or Cayman Chemical Company, cat. no. 16440), dissolved in physiological saline, were infused to achieve an increase of the mean pulmonary arterial pressure to values of over 25 mmHg. 30 minutes after the start of the infusion, a plateau was reached, and the experiment was started.
The test substances were administered as i.v. infusion or by inhalation. For the preparation of the solution for inhalation, the following procedure was adopted: For an animal having a weight of 4 kg, to prepare the stock solution (300 μg/kg), 1.2 mg of the test compound were weighed out and dissolved in a total volume of 3 ml (1% DMSO, 99% 0.2% strength citric acid solution, 1 n aqueous sodium hydroxide solution to adjust the pH to 8). The solution was then diluted to the concentration employed using 0.2% strength citric acid which had been adjusted to pH 8 beforehand with aqueous sodium hydroxide solution. In each test, 3 ml of the solution of test compound per 4 kg animal were nebulized in the inhalation arm of the respiratory circuit using the Aeroneb® Pro nebulizer system. The mean nebulization time was about 7 min from the start of the nebulization.
With respect to a prediction of the duration of action for human studies comparative example 11 was compared in the PAH minipig model after inhaled application to Ventavis® (=Iloprost, 10 μg/kg nominal dose), which we used as a clinical reference. […] Therefore, the duration of action is more than 6 times longer compared to Ventavis in this preclinical animal model.

[2] = tested on: plasma proteins; assay: Protein binding via Transil assay, rat plasma; assay type: in vitro ADME
Description: (§2) The distribution of a test substance between Transil® (phosphatidylcholine lipid bilayers immobilized on silica beads) and plasma is a characteristic feature of any pharmaceutical compound and is dependent on its extent of binding to plasma proteins. By comparing the distribution between Transil® and buffer with the distribution between Transil® and plasma of any species of interest, the unbound fraction in the plasma of the respective animal species can be calculated in vitro. The respective plasma and buffer concentrations were determined via a radioactivity analysis. A detailed description of the method and its validation was published by Schuhmacher et al. (2).

[3] = tested on: PAH-minipig; assay: PAH-minipig model, inhaled application on top of PAH standard-of-care; assay type: in vivo; conditions: bosentan, sildenafil, Ilomedin, riociguat
[4] = tested on: anesthetized PAH minipigs; assay: PAH minipig, intratracheal application of dry powder formulations and of different hydrates (PAP, BP); assay type: in vivo, Göttingen Minipigs; conditions: dry powder lactose formulation, i.t.
Procedure: as §1
About 0.3-0.75 μg/kg/min of 9,11-didesoxy-9α,11α-epoxymethanoprostaglandine F2α (U-44069; Sigma, cat. no. D0400, or Cayman Chemical Company, cat. no. 16440), dissolved in physiological saline, were infused to achieve an increase of the mean pulmonary arterial pressure to values of over 25 mmHg.
After characterization of the effects of comparative example 11 after nebulization of compound solutions, in a further step the effects of crystalline forms of comparative example 11, e.g. sesquihydrate, e.g. example 6e on PAP and BP after inhaled application of different dry powder lactose formulations (table 52) were studied in anesthetized PAH minipigs.
As reference pure Lactose vehicle was applied in the beginning of each experiment.

[5] = tested on: plasma proteins; assay: Protein binding via Transil assay, monkey plasma; assay type: in vitro ADME
Description: as §2

For `O=C(O)c1ccc(CCN(CCc2ccccc2OCc2ccc(-c3ccc(C(F)(F)F)cc3)cc2Cl)[C@H]2CCCc3nc(C(=O)O)ccc32)cc1` [Comparative example 11, (5S)-5-{[2-(4-carboxyphenyl)ethyl][2-(2-{[3-chloro-4′-(trifluoromethyl)[biphenyl]-4-yl]methoxy}phenyl)ethyl]amino}-5,6,7,8-tetrahydroquinoline-2-carboxylic Acid], the “minimal effective nominal dose” value ([1]; 5% reduction in PAP, nebulized) was 3 µg/kg, the “dose dependent efficacy (PAP) during observation interval” value ([1]; all doses (10, 30 and 100 μg/kg nominal dose), inhaled) was 240 min and the “selective PAP effect, duration of maximal effect” value ([1]; inhaled application, whole observation interval) was 240 min. For the same molecule, the duration of action ([1]; minipig model, inhaled) was “sufficient duration of action”, the “time of maximal effect on PAP after inhaled application” value ([1]; nebulized solution) was “about 90 min” and the “fraction unbound, lower than comparative example 1” value [2] was 1.6 times lower. For the same molecule, the “effect on PAP on top of PAH standard-of-care” value [3] was “selectively decreased elevated PAP”, the MED [4] was < 7.5 µg/kg and the “free fraction, lower than comparative example 1” value [5] was 2 times lower.
